Results taken from ChEMBL document CHEMBL6092194, “Development of membrane-targeting chalcone derivatives as antibacterial agents against multidrug-resistant bacteria” (Eur J Med Chem, 2024).

Key:
[1] = system: Staphylococcus aureus; experiment: Antibacterial activity against penicillin-resistant Staphylococcus aureus ATCC31007 by broth microdilution assay; format: functional
[2] = system: Pseudomonas aeruginosa; experiment: Antibacterial activity against penicillin-susceptible Pseudomonas aeruginosa ATCC27853 by broth microdilution method; format: functional
[3] = Hemolytic activity in red blood cells (unknown origin); format: toxicity, cell-based, Erythrocyte
[4] = system: Acinetobacter baumannii; experiment: Antibacterial activity against Acinetobacter baumannii ATCC19606 by broth microdilution assay; format: functional
[5] = Selectivity index, ratio of HC50 for hemolytic activity in red blood cells (unknown origin) to MIC for antibacterial activity against penicillin-resistant Staphylococcus aureus ATCC43300; format: toxicity, cell-based, RBC; conditions: read-out: Selectivity Index
[6] = system: Klebsiella pneumoniae; experiment: Antibacterial activity against Klebsiella pneumoniae ATCC10031 by broth microdilution assay; format: functional
[7] = system: Staphylococcus aureus; experiment: Antibacterial activity against erythromycin susceptible Staphylococcus aureus ATCC25923 by broth microdilution assay; format: functional
[8] = system: Staphylococcus epidermidis; experiment: Antibacterial activity against erythromycin-susceptible Staphylococcus epidermidis ATCC12228 by broth microdilution assay; format: functional
[9] = system: Escherichia coli; experiment: Antibacterial activity against penicillin-susceptible Escherichia coli ATCC25922 by broth microdilution method; format: functional
[10] = system: Enterococcus faecalis; experiment: Antibacterial activity against vancomycin susceptible Enterococcus faecalis ATCC29212 by broth microdilution assay; format: functional
[11] = system: Staphylococcus aureus; experiment: Antibacterial activity against penicillin-resistant Staphylococcus aureus ATCC43300 by broth microdilution assay; format: functional
[12] = system: Bacillus subtilis; experiment: Antibacterial activity against penicillin-susceptible Bacillus subtilis ATCC9372 by broth microdilution assay; format: functional

SMILES	MIC [1] [µg/mL]	MIC [2] [µg/mL]	HC50 [3] [µg/mL]	MIC [4] [µg/mL]	selectivity ratio [5]	MIC [6] [µg/mL]	MIC [7] [µg/mL]	MIC [8] [µg/mL]	MIC [9] [µg/mL]	MIC [10] [µg/mL]	MIC [11] [µg/mL]	MIC [12] [µg/mL]
CCCCCCCCCC(=O)Nc1cc[n+](CCCOc2ccc(C(=O)/C=C/c3ccccc3)cc2)cc1.[Br-]	4	> 128	871	64	218	> 128	4	16	32	8	4	2
CCCC[N+](C)(C)CCCOc1ccc(C(=O)/C=C/c2ccccc2)cc1.[Br-]	64	> 128	96.3	> 128	3	128	16	16	128	64	32	64
CCCCCCCCCCCCNC(=O)C[N+](C)(C)CCCOc1ccc(/C=C/C(=O)c2ccc(OCCC[N+](C)(C)CC(=O)NCCCCCCCCCCCC)cc2)cc1.[Br-].[Br-]	> 128	> 128	703	> 128	< 5.5	> 128	> 128	> 128	> 128	> 128	> 128	128
CCCCCCCC[N+](C)(C)CCCOc1ccc(/C=C/C(=O)c2ccc(OCCC[N+](C)(C)CCCCCCCC)cc2)cc1.[Br-].[Br-]	1	16	129	32	129	16	1	1	4	2	1	1
CCCCCCCCCCCC(=O)Nc1cc[n+](CCCOc2ccc(C(=O)/C=C/c3ccccc3)cc2)cc1.[Br-]	8	> 128	753	> 128	47.1	> 128	8	128	> 128	8	16	> 128
CCCCCCCCOc1cc[n+](CCCOc2ccc(/C=C/C(=O)c3ccc(OCCC[n+]4ccc(OCCCCCCCC)cc4)cc3)cc2)cc1.[Br-].[Br-]	64	128	180	128	5.6	64	64	32	128	64	32	64
CCCCCCCCNC(=O)C[N+](C)(C)CCCOc1ccc(/C=C/C(=O)c2ccc(OCCC[N+](C)(C)CC(=O)NCCCCCCCC)cc2)cc1.[Br-].[Br-]	8	128	69.5	16	17.4	32	4	8	8	4	4	4
CCCCCCCCCC[N+](C)(C)CCCCCOc1ccc(C(=O)/C=C/c2ccccc2)cc1.[Br-]	4	> 128	42	16	10.5	16	4	8	64	4	4	4
CCCCCCCCCCCC[N+](C)(C)CCCCCCCOc1ccc(C(=O)/C=C/c2ccccc2)cc1.[Br-]	64	> 128	47.4	> 128	3	> 128	16	16	> 128	32	16	16
CCCCCC(=O)Nc1cc[n+](CCCOc2ccc(C(=O)/C=C/c3ccccc3)cc2)cc1.[Br-]	4	> 128	> 1280	> 128	> 320	> 128	2	> 128	> 128	8	4	4
CCCCCCCCCCCCCC[N+](C)(C)CCCOc1ccc(/C=C/C(=O)c2ccc(OCCC[N+](C)(C)CCCCCCCCCCCCCC)cc2)cc1.[Br-].[Br-]	64	> 128	28.4	128	0.2	128	64	> 128	> 128	> 128	128	> 128
CCCCOc1cc[n+](CCCOc2ccc(/C=C/C(=O)c3ccc(OCCC[n+]4ccc(OCCCC)cc4)cc3)cc2)cc1.[Br-].[Br-]	2	64	> 1280	128	> 320	8	1	1	16	0.5	4	1
CCCCCCCCCCCC[N+](C)(C)CCCOc1ccc(C(=O)/C=C/c2ccccc2)cc1.[Br-]	16	> 128	220	64	55.1	64	4	8	128	> 128	4	4
CCCCCCCC[N+](C)(C)CCCCCOc1ccc(C(=O)/C=C/c2ccccc2)cc1.[Br-]	4	> 128	50.5	8	25.2	8	2	4	128	2	2	4
CCCCCCCC[N+](C)(C)CCCCCCCOc1ccc(C(=O)/C=C/c2ccccc2)cc1.[Br-]	4	> 128	105	32	52.6	8	2	2	128	4	2	2
O=C(CC12CC3CC(CC(C3)C1)C2)Nc1cc[n+](CCCOc2ccc(C(=O)/C=C/c3ccccc3)cc2)cc1.[Br-]	64	> 128	708	> 128	5.5	> 128	32	64	> 128	64	128	64
